Measurements reported in PubChem BioAssay (NCI).
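Cultured in 96-well plates, cells were exposed to test compound for 48 hours across five concentrations. GI50 = concentration required for 50% inhibition of growth. Definition used: TGI = concentration required for complete inhibition of growth.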

Legend:
Assay in all cases: inhibition of tumour cell growth, NCI panel, 48 h
[1] = test system: SK-OV-3 ovarian
[2] = test system: NCI-H522 lung
[3] = test system: MCF7 breast
[4] = test system: SNB-19 CNS
[5] = test system: NCI-H23 lung
[6] = test system: SN12C renal
[7] = test system: LOX IMVI melanoma
[8] = test system: DU-145 prostate
[9] = test system: OVCAR-8 ovarian
[10] = test system: UACC-62 melanoma

Row | SMILES | GI50 [1] [µM] | TGI [1] [µM] | GI50 [2] [µM] | TGI [2] [µM] | GI50 [3] [µM] | TGI [3] [µM] | GI50 [4] [µM] | TGI [4] [µM] | GI50 [5] [µM] | TGI [5] [µM] | GI50 [6] [µM] | TGI [6] [µM] | GI50 [7] [µM] | TGI [7] [µM] | GI50 [8] [µM] | TGI [8] [µM] | GI50 [9] [µM] | TGI [9] [µM] | GI50 [10] [µM] | TGI [10] [µM]
1 | O=C(/C=C/c1ccccc1)CC(c1ccccc1)N1CCOCC1 (stereo not drawn) | 14.4 | 30.7 | 4.1 | 20 | 4.68 | 80.3 | 9.8 | 21.9 | 2 | 4.4 | 4.25 | 14.8 | 0.371 | 1.36 | 3.49 | 10.9 | 4.57 | 17.3 | 9.07 | 21.8
2 | Cc1ncc(C(=O)Nc2ccc(CN3CCN(C)CC3)c(C(F)(F)F)c2)cc1C#Cc1cnc(NC2CC2)c2ncccc12 | 3.39 | 7.66 | 0.635 | 1.23 | 0.605 | 1.18 | 0.713 | 1.32 | 0.646 | 1.36 | 1.67 | 3.32 | 0.59 | 1.11 | 0.65 | 1.22 | 0.708 | 1.54 | 0.874 | 2.38
3 | CCSc1nc(N)c2cn[nH]c2n1 | 42.1 | > 100 | 62 | > 100 | 23 | 60.3 | 39.2 | > 100 | 20.7 | 58.9 | 28.7 | 70.9 | 30.9 | > 100 | 46.2 | > 100 | 48.7 | > 100 | 18 | 38.9
4 | NC(=O)C1(N2CCCCC2)CCN(CCCC(=O)c2ccc(F)cc2)CC1 | 3.26 | 35.3 | 0.0965 | – | 0.108 | > 100 | 2.86 | > 100 | 1.08 | > 20.1 | 5.24 | > 100 | 0.254 | > 100 | 2.83 | > 25.6 | 4.91 | > 100 | 0.219 | > 100
5 | CCOC1Oc2ccccc2-c2oc(=O)c(Sc3ccc(C)cc3)cc21 (stereo not drawn) | 20.5 | > 100 | 18.4 | 82.9 | 19.8 | > 100 | 29.1 | > 100 | 40.4 | > 100 | 29.5 | > 100 | 24 | > 100 | 31.8 | > 100 | 51 | > 100 | 17.9 | > 100
6 | c1ccc2nc3c(cc4ccccn43)nc2c1 | 97.4 | > 100 | 21.5 | > 100 | > 100 | > 100 | > 100 | > 100 | 37.6 | > 100 | 70 | > 100 | 47.1 | > 100 | > 100 | > 100 | 34.8 | > 100 | 17.4 | > 100
7 | C=C(CN1CCc2ccccc2C1)c1ccc(C(=O)Nc2ccccc2N)cc1 | 1.08 | 3.17 | 0.732 | 3.72 | 2.08 | > 31.6 | 2.39 | > 50 | 0.677 | – | 0.978 | 5.32 | 0.316 | 1.2 | 2.45 | 15.7 | 1.09 | 13.8 | 0.821 | 3.3
8 | COc1ccc(CC(C)C(C)Cc2ccc(OC)c(OC)c2)cc1OC (stereo not drawn) | > 1400 | > 1400 | 79.7 | > 1400 | 650 | > 1400 | > 1400 | > 1400 | 297 | > 1400 | > 1400 | > 1400 | > 1400 | > 1400 | > 1400 | > 1400 | > 1400 | > 1400 | 1130 | > 1400
9 | COCCOCCOCc1n(Cc2ccc3ccccc3n2)c2ccccc2[n+]1Cc1ccc2ccccc2c1 | 0.501 | 2.68 | 0.248 | 0.936 | 0.317 | 1.34 | 0.441 | 1.62 | 0.386 | 10.3 | 0.362 | 1.41 | 0.333 | 1.24 | 0.593 | 12.6 | 0.498 | 1.92 | 0.364 | 1.36
10 | CNC(=O)c1cc2c(Oc3ccc(NC(=O)C4(C(=O)Nc5ccc(F)cc5)CC4)cc3)ccnc2cc1OC | 2.94 | 9.33 | 2.51 | > 100 | 2.55 | > 100 | 8.02 | > 100 | 2.17 | > 100 | 1.1 | > 100 | 2.57 | 8.93 | 4.06 | > 100 | 3.77 | > 100 | 1.54 | 15
11 | CC1(C)N=C(N)N=C(N)N1c1ccc(OCC(=O)Nc2ccccc2)c(Cl)c1 | > 60.9 | > 100 | 3.01 | > 100 | 0.886 | > 100 | 28.8 | > 100 | 2.96 | > 100 | 0.647 | > 100 | 0.589 | > 100 | 1.15 | > 100 | 6.69 | > 100 | 0.569 | > 100
12 | CCN(CC)CCNC(=O)c1cn2ncnc(Oc3ccc(NC(=O)Nc4ccc(Cl)c(C(F)(F)F)c4)c(F)c3)c2c1C | 1.66 | 3.26 | 2.03 | 4.13 | 1.4 | 3.15 | 1.95 | 3.5 | 1.62 | 3.17 | 1.69 | 3.4 | 1.3 | 2.62 | 1.72 | 3.12 | 1.95 | 3.96 | 1.68 | 3.15
13 | CN(C)Cc1c[nH]c2c(NCCN)c3c(c(NCCN)c12)C(=O)c1ccccc1C3=O | 8.67 | 24.1 | 1.13 | 3.26 | 19 | 94.1 | 6.52 | 23 | 2.22 | 8.99 | 0.372 | 1.88 | 0.556 | 1.88 | 5.55 | 18.7 | 0.726 | 11 | 1.44 | 4.18
